Measured values published in PMC9848259 (Journal of Enzyme Inhibition and Medicinal Chemistry, 2023).

Assays:
[1] = biological target: T1, BuChE (from equine serum) (Equus caballus, UniProt P81908); assay: biochemical; settings: for Selectivity for BuChE: IC50(AChE)/IC50(BuChE); for IC50: means ± SD of three experiments
T1 construct: purchased Sigma Aldrich; host or cells: equine serum
Method: (§1) The capacity of the novel cyclopentaquinoline hybrids to inhibit AChE (from the electric eel) and BuChE (from equine serum) were determined by the modified colorimetric Ellman’s method[38]^,[39]. Both enzymes, DTNB – Ellman’s reagent (5,5′-dithiobis-(2-nitrobenzoic acid)), acetyltiocholine iodide (ATCI) were obtained from Sigma Aldrich. AChE and BuChE samples in phosphate buffer (PBS) pH 8.0 were incubated in 96-well plates in the presence of the substrate (ATCI), 76 µl of DTNB and the tested compound at various concentration at room temperature for 10 min (AChE) or eight minutes (BuChE).

[2] = biological target: T2, AChE (from the electric eel) (Electrophorus electricus, UniProt O42275); assay: biochemical; settings: for Selectivity for AChE: IC50(BuChE)/IC50(AChE); for IC50: means ± SD of three experiments
T2 construct: purchased Sigma Aldrich
Method: as §1

[3] = biological target: T3, Aβ42 (Homo sapiens, UniProt P05067); assay: In cellulo β-amyloid assay, Th-S fluorescence in E. coli over-expressing Aβ42; assay type: cell-based, Escherichia coli; settings: 10 µM
T3 construct: expressed in transfected cells; host or cells: Escherichia coli BL21 (DE3), pET vector
Method: Inhibition assay in Escherichia coli cells over-expressing amyloid proteins. […] Escherichia coli competent cells BL21 (DE3) were transformed with the required pET vectors carrying the DNA sequence of Aβ42 peptide. Because of the addition of the initiation codon ATG in front of genes, the over-expressed Aβ42 contains an additional methionine residue at their N terminus. For overnight culture preparation, a colony of BL21 (DE3) bearing the plasmid to be expressed was inoculated in 10 ml of M9 minimal medium containing 50 μg/ml of kanamycin at 37 °C. […] The bacterial culture was then grown at 37 °C, with orbital agitation of 250 rpm. When the cell density reached OD600nm–0.6, 980 μL of the culture were transferred into 1.5 ml conical tubes containing 10 μL of the compound to be tested dissolved in DMSO, and 10 μL of 100 mM isopropyl 1-thio-β-D-galactopyranoside (IPTG). The final concentration of the compound was set to 10 μM. The samples were grown overnight at 37 °C under agitation at 1400 rpm, using a Thermomixer (Eppendorf, Hamburg, Germany). […]
The fluorescence normalisation was carried out considering as 100% the Th-S fluorescence of the bacterial cells expressing Aβ42 in the absence of drug, and 0% the Th-S fluorescence of the bacterial cells non-expressing Aβ42 (in absence of the protein production inductor, IPTG). […]

[4] = calibration substance; cited from earlier work
[5] = test system: Human hepatic stellate cells (HSCs); assay: in vitro; assay type: cell-based; settings: 0.1 µM, 24 h
Method: Human hepatic stellate cells (HSCs, Sciencell) were grown in the Stellate Cell Medium (Sciencell) supplemented with 2% Foetal Bovine Serum (Sciencell), 1% Stellate Cell Growth Supplement (Sciencell) and 1% penicillin/streptomycin solution (Sciencell). The cells were cultured in the incubator at 37 °C and 5% CO2. To start the experiment, the cells were seeded at a density of 5 × 10^3 cells/well in 96-well plates and incubated (37 °C, 5% CO2) for 24 h. After incubation, medium was removed from the wells and the cells were exposed to 100 µl of the compound over a range of concentrations (from 0.1 to 10 µM) or 100 µl of culture medium alone (blank control). The cells were then further incubated for 24 h. After this time, the medium was removed, the cells were washed with PBS and 50 µl of MTT solution (0.75 mg/ml) was added to each well. The plates were incubated in the dark at 37 °C for another two hours. The MTT solution was then removed from the wells and 100 µl of DMSO was added. The plates were incubated at room temperature for 10 min and then 5 µl of Sorensen Buffer was added to each well. The plates were swayed and the absorbance at 570 nm was measured with a microplate reader (Synergy H1, BioTek, Winooski, VT, USA). The cell viability was expressed as a percentage of the control values (blank control)[40]^,[46]^,[47].

[6] = test system: SH-SY5Y cells; assay: Neuroprotection against rotenone/oligomycin A, pre-incubation, MTT test; assay type: cell-based, human; settings: Rotenone/Oligomycin A 30/10 µM, compound 0.001 µM
[7] = test system: SH-SY5Y cells; assay: Neuroprotection against H2O2-induced oxidative stress, MTT test; assay type: cell-based, human; settings: H2O2 100 µM
[8] = test system: SH-SY5Y cells; assay: Neuroprotection against rotenone/oligomycin A, co-incubation, MTT test; assay type: cell-based, human; settings: Rotenone/Oligomycin A 30/10 µM
[9] = biological target: T4, hyaluronidase (Bos taurus, UniProt Q2YDK3); assay: Hyaluronidase inhibition test (turbidimetric); assay type: biochemical
T4 sequence (Q2YDK3 36-553): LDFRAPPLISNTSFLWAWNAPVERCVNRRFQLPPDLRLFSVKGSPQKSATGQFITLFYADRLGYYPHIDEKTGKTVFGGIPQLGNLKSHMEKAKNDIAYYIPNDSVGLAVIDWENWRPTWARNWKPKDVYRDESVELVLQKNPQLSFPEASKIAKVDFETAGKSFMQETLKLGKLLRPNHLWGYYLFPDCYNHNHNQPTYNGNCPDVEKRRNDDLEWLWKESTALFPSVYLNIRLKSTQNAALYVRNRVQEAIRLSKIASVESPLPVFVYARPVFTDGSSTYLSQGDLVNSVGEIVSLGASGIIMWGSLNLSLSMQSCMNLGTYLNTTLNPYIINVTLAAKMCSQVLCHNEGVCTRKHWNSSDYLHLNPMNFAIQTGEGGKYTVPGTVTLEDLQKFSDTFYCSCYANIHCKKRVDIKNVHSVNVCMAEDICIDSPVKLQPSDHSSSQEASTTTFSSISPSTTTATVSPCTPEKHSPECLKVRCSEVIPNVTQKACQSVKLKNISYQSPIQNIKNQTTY
Method: Hyaluronidase inhibition was established by turbidimetry according to USP XXII-NF XVII[43], which was further adapted to use in 96-well plates by Piwowarski et al.[44] and the principle of this assay is based on the following reaction: hyaluronic acid→hyaluronidase depolymerization products+[…]
The ability to inhibit hyaluronidase was assessed using a turbidimetric method based on spectrophotometric measurement of turbidity resulting from the formation of hyaluronan-bovine albumin complexes in an acidic environment. The analysis was performed against a positive control. Briefly, 20 µl of the tested compound in monosodium phosphate buffer (pH 7.0) was added to 40 µl of hyaluronidase solution (22.55 U/ml, Sigma Aldrich) in the same buffer. The mixture was incubated for 10 min in the dark at 37 °C. Next, 40 µl of hyaluronic acid solution (0.03%, Sigma Aldrich) in monosodium phosphate buffer (pH 5.35) was added to all wells and the mixture was further kept in the dark at 37 °C for 45 min. Finally, 300 µl of bovine serum albumin solution (0.1%, Serva) in sodium acetate buffer (pH 3.75) was added to the mixture, and the 96-well plate was incubated at room temperature for next 10 min. Changes in turbidity at 600 nm were measured by a microplate reader (BioTek, Winooski, VT, USA). Heparin (WZF, Polfa) was used as a positive control. […]

T1 sequence (P81908 whole entry): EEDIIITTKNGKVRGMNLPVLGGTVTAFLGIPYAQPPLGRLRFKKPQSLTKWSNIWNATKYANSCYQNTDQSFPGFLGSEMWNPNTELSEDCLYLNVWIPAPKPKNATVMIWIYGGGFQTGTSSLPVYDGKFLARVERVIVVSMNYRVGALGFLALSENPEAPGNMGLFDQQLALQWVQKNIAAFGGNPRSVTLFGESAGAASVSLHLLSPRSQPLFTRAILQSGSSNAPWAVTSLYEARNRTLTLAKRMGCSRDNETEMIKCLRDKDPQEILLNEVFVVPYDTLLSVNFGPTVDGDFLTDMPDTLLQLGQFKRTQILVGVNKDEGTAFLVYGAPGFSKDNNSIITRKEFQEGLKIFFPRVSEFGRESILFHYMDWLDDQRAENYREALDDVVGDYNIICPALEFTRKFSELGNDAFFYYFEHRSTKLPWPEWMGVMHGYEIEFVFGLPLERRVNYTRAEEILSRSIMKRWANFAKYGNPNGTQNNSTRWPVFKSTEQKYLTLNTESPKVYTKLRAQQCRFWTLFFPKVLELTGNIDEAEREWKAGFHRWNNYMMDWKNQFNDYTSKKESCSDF
T2 sequence (O42275 24-633): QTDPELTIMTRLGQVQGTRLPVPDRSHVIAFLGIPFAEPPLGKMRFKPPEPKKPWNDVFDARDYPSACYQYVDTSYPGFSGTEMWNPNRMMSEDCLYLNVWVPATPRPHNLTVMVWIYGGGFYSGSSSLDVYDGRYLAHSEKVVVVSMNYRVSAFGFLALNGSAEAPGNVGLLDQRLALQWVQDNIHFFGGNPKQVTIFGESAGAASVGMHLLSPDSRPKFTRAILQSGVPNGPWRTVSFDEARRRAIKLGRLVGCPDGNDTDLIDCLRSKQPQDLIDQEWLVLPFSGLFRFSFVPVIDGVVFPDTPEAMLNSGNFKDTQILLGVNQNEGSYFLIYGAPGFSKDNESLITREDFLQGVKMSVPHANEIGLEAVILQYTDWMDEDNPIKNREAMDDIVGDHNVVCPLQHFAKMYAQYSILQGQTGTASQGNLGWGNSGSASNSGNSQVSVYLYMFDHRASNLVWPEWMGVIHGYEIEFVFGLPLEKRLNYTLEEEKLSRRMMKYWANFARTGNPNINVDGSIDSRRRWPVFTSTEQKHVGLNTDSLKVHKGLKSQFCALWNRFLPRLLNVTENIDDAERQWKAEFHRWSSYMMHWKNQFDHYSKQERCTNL
T3 sequence (P05067 672-713): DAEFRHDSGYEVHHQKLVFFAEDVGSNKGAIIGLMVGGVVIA

Compound	Selectivity for BuChE [1]	IC50 [1]	Selectivity for AChE [2]	IC50 [2]	further results
O=C(NCCNc1c2c(nc3ccccc13)CCC2)c1cc(Cl)cc(Cl)c1 [Compound 3a]	6.88	225 ± 21 nM	0.15	1540 ± 121 nM	–
O=C(NCCCNc1c2c(nc3ccccc13)CCC2)c1cc(Cl)cc(Cl)c1 [Compound 3b]	–	889 ± 27 nM	0.56	1180 ± 134 nM	–
O=C(NCCCCNc1c2c(nc3ccccc13)CCC2)c1cc(Cl)cc(Cl)c1 [Compound 3c]	9.18	126 ± 7 nM	0.11	1160 ± 130 nM	–
O=C(NCCCCCNc1c2c(nc3ccccc13)CCC2)c1cc(Cl)cc(Cl)c1 [Compound 3d]	0.19	1120 ± 180 nM	5.33	211 ± 31 nM	–
O=C(NCCCCCCCNc1c2c(nc3ccccc13)CCC2)c1cc(Cl)cc(Cl)c1 [Compound 3f]	2.16	117 ± 27 nM	0.46	253 ± 42 nM	–
O=C(NCCCCCCCCNc1c2c(nc3ccccc13)CCC2)c1cc(Cl)cc(Cl)c1 [Compound 3g]	4.50	330 ± 34 nM	0.22	1480 ± 133 nM	–
O=C(NCCCCCCCCCNc1c2c(nc3ccccc13)CCC2)c1cc(Cl)cc(Cl)c1 [Compound 3h]	1.10	131 ± 11 nM	0.91	145 ± 13 nM	–
O=C(NCCCCCCCCNc1c2c(nc3cc(Cl)ccc13)CCCC2)c1ccc2nc(-c3ccc(Cl)cc3)c3c(c2c1)NCCC3 [DP128, reference compound]	–	–	–	–	anti-amyloid (inhibition) capacity for Aβ42 [3]: 69.2 ± 4.1
CC(CN1c2ccccc2Sc2ccccc21)N(C)C.Cl (stereo not drawn) [Promethazine HCl]	–	–	–	–	Experimental properties pKa [4]: 9.10[54]
Nc1c2c(nc3ccccc13)CCCC2 [Tacrine, 9-amino-1,2,3,4-tetrahydroacridine, reference compound]	–	–	–	–	cell viability (hepatotoxicity, MTT) [5]: 100.67%
Cc1c(C)c2c(c(C)c1O)CCC(C)(C(=O)O)O2 (stereo not drawn) [Trolox, reference compound]	–	–	–	–	% neuroprotection [6]: 2.15%; % neuroprotection ([7]; compound 0.01 µM): 77.16%; % neuroprotection ([7]; compound 0.1 µM): 91.22%; % neuroprotection ([7]; compound 1 µM): 96.03%; % neuroprotection ([7]; compound 10 µM): 95.05%; % neuroprotection ([8]; compound 0.001 µM): 5.60%; % neuroprotection ([8]; compound 0.01 µM): 4.67%; % neuroprotection ([8]; compound 0.1 µM): 0.35%
heparin	–	–	–	–	IC50 [9]: 56400 ± 780 nM
